Laboratory results reported in article PMC9865903, “Improving the Antimycobacterial Drug Clofazimine through Formation of Organic Salts by Combination with Fluoroquinolones” (International Journal of Molecular Sciences, 2023).
Several values for one entry are separate records, joined by “and”; a condition that tells them apart may be missing. Identical values can stand only once.

How the values were obtained:
[1] = Simultaneous thermal analysis (STA: thermogravimetry with DSC); assay type: physicochemical; conditions: heating from room temperature to 500 °C at 5 °C/min, value in parentheses after melting point
Description: Considering that thermal stability is an important issue for any API or derived formulation, both API-OSs were next tested by simultaneous thermal analysis (STA) which combines thermogravimetry with differential scanning calorimetry. Thermograms were obtained for the API-OSs and their parent fluoroquinolones (Figure 2), providing their respective melting points and decomposition temperatures. As shown in both Figure 2 and Table 1, the two new API-OSs have melting points lower than those of their respective parent APIs, as expected, but in all cases well above 100 °C, which is generally acknowledged as the threshold temperature separating common ILs from other types of GUMBOS. […] Therefore, the thermostability of this parent antimycobacterial drug is improved when it is forming an ionic pair with the selected fluoroquinolones.
The thermal stability of the compounds was evaluated using a Hitachi STA7200RV instrument (Scancsi, Vila Nova de Gaia, Portugal), following the manufacturer’s instructions. The compounds were subjected to heating from room temperature to 500 °C at a speed of 5 °C/min, obtaining the thermograms provided in Figure 2.

physchem = conditions: organic solvent or mixture
Description: DMSO has been previously established as an adequate solvent for studies focused on Clf, including susceptibility testing on Mycobacteria.

M. avium 2447 SmT = assay: Antimycobacterial activity in axenic culture, broth microdilution with resazurin; assay type: cell-based; conditions: Mycobacterium avium, 168 h, 7 days at 37 °C, 4PL interpolation, parentheses = 95% confidence interval
Procedure: The susceptibility of M. avium to the API-OSs and their parent drugs was first assessed in axenic culture to determine the IC50 of each test compound. To this end, the bacteria were incubated with increasing concentrations of the compounds for 7 days at 37 °C and their viability was assessed by the resazurin assay.
Mycobacterium avium 2447 smooth transparent (SmT) strain (kindly provided by Dr. F. Portaels, Institute of Tropical Medicine, Antwerp, Belgium) was grown to the mid-log phase in Middlebrook 7H9 medium (BD Difco^TM, Fisher Scientific, Porto Salvo, Portugal) containing 0.2% of glycerol (VWR International, Carnaxide, Portugal) and 10% of Albumin-Dextrose-Catalase (ADC, Merck KGaA, Darmstadt, Germany) supplement at 37 °C, as described previously.
The antimicrobial activity of the different compounds was assessed by broth microdilution, following the Clinical and Laboratory Standards Institute (CLSI) guidelines and as described previously, using stock solutions of the compounds in DMSO, due to the negligible solubility of Clf in water. Briefly, M. avium was grown in Middlebrook 7H9 medium to the exponential phase and 1 to 5 × 10^5 CFU/mL of bacteria was seeded in 96-well plates with increasing concentrations of the compounds. […] After 6 days of incubation, bacterial viability was assessed by resazurin reduction. Then, 10% (v/v) of resazurin (Sigma-Aldrich, St. Louis, MO, USA) at 2.5 mM in phosphate-buffered saline (PBS, Sigma-Aldrich, St. Louis, MO, USA) was added to each well, and after 24 h of incubation at 37 °C, the fluorescence of resorufin, resulting from the conversion of resazurin by metabolically active cells, was measured at λex = 530 nm and λem = 590 nm in a Synergy^TM Mx microplate reader from BioTek (Agilent Technologies Inc., Santa Clara, CA, USA) using the Gen5 software also from BioTek. The results are expressed as the percentage of the fluorescence obtained in experimental wells relative to the fluorescence obtained in nontreated wells.
The viability of both mycobacteria and host macrophages was determined by resazurin reduction as detailed above. […]

[2] = Toxicity to infected host macrophages, resazurin reduction; assay type: cell-based, murine (C57BL/6 mice); conditions: male, C57BL/6, mouse; BMM infected with M. avium 2447 SmT, 5 days at 37 °C and 7% CO2, resazurin; 4PL interpolation; parentheses = 95% confidence interval; read-out: LC50
Procedure: Considering that, after invading its mammalian host, M. avium replicates mainly inside macrophages, the toxicity of test compounds to infected murine bone marrow-derived macrophages (BMM) was also assessed. This was carried out by treating BMM infected with M. avium 2447 SmT with increasing concentrations of the test compounds for 5 days at 37 °C and 7% CO2. Macrophage viability was assessed through a resazurin reduction assay. As shown in Table 1 and Figure 4, though being more toxic to mammalian cells than their parent fluoroquinolones, the Clf-derived OSs seem less toxic to BMM than Clf itself. We are aware that the confidence intervals for LD50 values shown in Table 1 for Clf and its derived OSs have some degree of overlap which, alongside the large standard deviations depicted on the macrophage viability curves shown in Figure 4, are not statistically significant different.
Macrophages were derived from the bone marrow of male C57BL/6 mice bred at the i3S animal facility and infected with M. avium 2447 SmT as described previously. Immediately after infection, BMM were treated with different concentrations of each compound. Each condition was tested in triplicate. The intracellular growth of M. avium 2447 SmT was evaluated 5 days after infection, by colony-forming units (CFUs) assay, plating the bacteria in Middlebrook 7H10 agar (BD DifcoTM, Fisher Scientific, Porto Salvo, Portugal) supplemented with 10% Oleic Acid-Albumin-Dextrose-Catalase (OADC; Merck KGaA, Darmstadt, Germany) for at least 7 days at 37 °C. The viability of macrophages was determined by resazurin reduction as detailed above for mycobacteria.
The viability of both mycobacteria and host macrophages was determined by resazurin reduction as detailed above. IC50 (concentration that inhibits 50% of mycobacterial growth after 7 days of incubation) and LD50 (concentration that inhibits 50% of macrophage viability) values were interpolated by fitting the experimental data through a 4PL nonlinear sigmoidal curve using the GraphPad Prism software version 9 (GraphPad Software Inc., La Jolla, CA, USA). […]

[3] = Net charge at physiological pH; assay type: physicochemical; conditions: at physiological pH 7.4
Procedure: Table 1 Physico-chemical properties and in vitro effects of the API-OSs and their parent drugs. The compounds were tested against both axenic cultures of M. avium 2447 SmT (IC50) and mammalian host cells (bone marrow-derived macrophages, BMM, LC50) infected with M. avium 2447 SmT. ^1. | column: Net Charge ^2

[4] = parameters: method as in PMID 7617530, PMID 35300192; conditions: due to poor solubility in aqueous/polar media; cited from earlier work
[5] = in vivo, po; cited from earlier work
[6] = cited from earlier work

SMILES | Decomposition Temperature [1] | solubility (physchem) | IC50 (M. avium 2447 SmT) [µM] | CC50 at 5 days [2] [µM] | Net Charge [3] | Biopharmaceutics Classification System class [4] | absorption rates in humans [5] [%] | solubility in water [6]
CC(C)/N=c1\cc2n(-c3ccc(Cl)cc3)c3ccccc3nc-2cc1Nc1ccc(Cl)cc1 [Clf, clofazimine] | 221.9 (258.0) °C | 4800 µg/mL and 10200 µM | 0.33 | 4.1 | +1 | class II | 45 to 62 | virtually insoluble
CC1COc2c(N3CCN(C)CC3)c(F)cc3c(=O)c(C(=O)O)cn1c23 (centres unmarked) [Of, ofloxacin] | 274.8 (318.8) °C | – | 3.85 | > 100 | −1 | – | – | –
CCn1cc(C(=O)O)c(=O)c2cc(F)c(N3CCNCC3)cc21 [Nf, norfloxacin] | 206.1 (222.0) °C | 11000 µg/mL and 34400 µM | 7.93 | > 100 | −1 | – | – | –
